The target of test [1] is hWRN(519-1227)_C-H3CV-GFP-10His (Homo sapiens, UniProt Q14191). As to the kind of experiment: Helicase Assay for WRN Inhibition (ATP-dependent, fluorescence based).
A further test relates to SW480 cells. As to the kind of experiment: Cell growth assay (CellTiter-Glo 2.0), SW480 MSS cell line. The conditions noted are these: read-out: Cell Growth Inhibition GI50 SW480.
A further test concerns HCT 116 cells. As to the kind of experiment: Cell growth assay (CellTiter-Glo 2.0), HCT 116 MSI-H cell line. The conditions noted are these: read-out: Cell Growth Inhibition GI50 HCT-116.
The target of another test is T1, WRN C727 (Homo sapiens, UniProt Q14191).
T1 construct: endogenous in cells; host or cells: OCI-AML2
T1 sequence (Q14191 whole entry): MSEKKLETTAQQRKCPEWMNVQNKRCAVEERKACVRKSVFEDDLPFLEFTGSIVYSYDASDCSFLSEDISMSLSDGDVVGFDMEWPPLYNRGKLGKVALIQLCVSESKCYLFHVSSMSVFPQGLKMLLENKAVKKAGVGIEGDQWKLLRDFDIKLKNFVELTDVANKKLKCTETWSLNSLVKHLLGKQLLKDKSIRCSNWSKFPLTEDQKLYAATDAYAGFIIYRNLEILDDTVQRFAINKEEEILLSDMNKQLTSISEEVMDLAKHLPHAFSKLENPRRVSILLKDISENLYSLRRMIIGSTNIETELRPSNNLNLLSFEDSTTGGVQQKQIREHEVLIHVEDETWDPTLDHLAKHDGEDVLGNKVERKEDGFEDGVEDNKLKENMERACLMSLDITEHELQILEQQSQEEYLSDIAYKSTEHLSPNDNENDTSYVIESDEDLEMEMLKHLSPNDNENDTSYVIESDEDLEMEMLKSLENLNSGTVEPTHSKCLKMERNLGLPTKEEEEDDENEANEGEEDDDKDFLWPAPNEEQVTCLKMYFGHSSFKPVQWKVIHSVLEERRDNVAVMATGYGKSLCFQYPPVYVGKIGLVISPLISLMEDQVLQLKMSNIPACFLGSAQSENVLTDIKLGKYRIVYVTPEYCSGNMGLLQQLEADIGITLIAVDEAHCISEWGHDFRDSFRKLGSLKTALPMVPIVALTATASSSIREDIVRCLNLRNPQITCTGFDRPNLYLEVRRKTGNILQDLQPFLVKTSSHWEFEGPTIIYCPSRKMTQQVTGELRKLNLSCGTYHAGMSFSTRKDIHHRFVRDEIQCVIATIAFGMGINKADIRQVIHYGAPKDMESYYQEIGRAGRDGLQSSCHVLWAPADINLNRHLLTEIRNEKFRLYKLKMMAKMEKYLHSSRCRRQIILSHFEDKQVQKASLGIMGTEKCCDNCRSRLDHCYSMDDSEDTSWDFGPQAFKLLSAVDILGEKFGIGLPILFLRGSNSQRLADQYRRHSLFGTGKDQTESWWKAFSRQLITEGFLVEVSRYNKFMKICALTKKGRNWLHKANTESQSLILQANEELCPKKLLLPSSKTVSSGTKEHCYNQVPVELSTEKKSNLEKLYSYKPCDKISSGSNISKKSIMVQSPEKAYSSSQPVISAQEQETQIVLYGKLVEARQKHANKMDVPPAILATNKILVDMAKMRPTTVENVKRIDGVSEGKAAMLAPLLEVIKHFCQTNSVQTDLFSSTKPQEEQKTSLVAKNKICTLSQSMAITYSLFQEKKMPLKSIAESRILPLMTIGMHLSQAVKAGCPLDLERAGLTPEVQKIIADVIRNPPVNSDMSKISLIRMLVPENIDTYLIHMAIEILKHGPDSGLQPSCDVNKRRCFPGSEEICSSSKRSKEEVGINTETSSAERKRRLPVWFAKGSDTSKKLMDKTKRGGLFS
The test is described as follows: Target engagement, in vitro (lysate), OCI-AML2. Format: binding. The conditions noted are these: read-out: OCI-AML2 WRN C727 TE50 in vitro (lysate). Here is the method: Cells or cell lysates were treated with a dose response of compound followed by probe treatment, which labels solvent exposed cysteines. Proteins were enzymatically digested with trypsin and probe-labelled peptides were enriched with streptavidin. Isolated peptides were then separated using reversed-phase liquid chromatography on a C18 column (Dionex Ultimated 3000 nano-LC, Thermo). Peptides were analyzed by parallel reaction monitoring mass spectrometry (Exploris 120, Thermo).
Target engagement (%) is calculated relative to DMSO treated control samples.

Where [2] appears, read: WRN Helicase IC50, 30 min preincubation with ATP, 30 min reaction.
The mark [3] stands for this setting: HCT-116 (MSI-H), 5-day incubation.

Several values for one entry are separate records, joined by “and”; a condition that tells them apart may be missing. Equal values may be shown once. Read-outs that look alike come from different tables or passages of the source.

Sequence of hWRN(519-1227)_C-H3CV-GFP-10His (Q14191 519-1227): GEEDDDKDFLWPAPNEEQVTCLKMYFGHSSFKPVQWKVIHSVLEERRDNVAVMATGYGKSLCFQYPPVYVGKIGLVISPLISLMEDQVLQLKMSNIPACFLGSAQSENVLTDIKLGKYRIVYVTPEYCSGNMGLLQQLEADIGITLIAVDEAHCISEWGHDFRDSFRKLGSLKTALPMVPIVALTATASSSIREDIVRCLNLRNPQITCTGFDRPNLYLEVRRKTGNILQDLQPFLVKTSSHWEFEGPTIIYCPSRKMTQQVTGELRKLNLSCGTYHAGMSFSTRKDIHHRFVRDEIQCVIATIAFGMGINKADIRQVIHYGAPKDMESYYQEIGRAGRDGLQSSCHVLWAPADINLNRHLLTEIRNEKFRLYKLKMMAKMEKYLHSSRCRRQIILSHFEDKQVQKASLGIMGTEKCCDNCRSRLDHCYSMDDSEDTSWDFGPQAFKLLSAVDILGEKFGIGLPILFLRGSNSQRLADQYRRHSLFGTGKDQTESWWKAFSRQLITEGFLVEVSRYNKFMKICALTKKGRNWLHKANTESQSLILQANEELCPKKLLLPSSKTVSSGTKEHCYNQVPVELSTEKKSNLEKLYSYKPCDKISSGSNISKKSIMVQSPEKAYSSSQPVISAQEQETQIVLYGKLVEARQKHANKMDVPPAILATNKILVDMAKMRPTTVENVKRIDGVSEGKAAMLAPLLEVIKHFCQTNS
Description for HCT 116 cells: The effects of compound on cellular viability were determined using the CellTiter-Glo® 2.0 Luminescent Cell Viability Assay (Promega, Madison, WI).
SW480 cells were seeded at 1,000 cells per well in Eagle's Minimum Essential Medium (EMEM) with 10% FBS. Both cell lines were seeded in a volume of 50 μL medium per well. […] The concentration range was adjusted as needed for compounds of different potencies. The cells treated with compounds were incubated for 5 days at 37° C. in 5% CO2. […] The plate was then read on a Clariostar plate reader (BMG Labtech, Cary, NC) in luminescence mode. The previously measured baseline cell viability was subtracted from the luminescence value of each well, and cell viability (% of DMSO) was plotted as a function of log compound concentration. The EC50 was then calculated for each compound using Dotmatics Software (San Diego, CA).

`C[C@@H](/C=C/S(C)(=O)=O)NC(=O)c1cc2ccccc2nc1Oc1ccccc1` [Example 242, (S,E)-N-(4-(methylsulfonyl)but-3-en-2-yl)-2-phenoxyquinoline-3-carboxamide] returned an IC50 in test [1] (setting [2]) of 9.8 µM. The GI50 is over 10 µM with SW480 cells (Homo sapiens, SW480, 120 h) and 2.8 µM in the test with HCT 116 cells (Homo sapiens, HCT-116, 120 h).

In turn, `CN(C)C(=O)C[C@@H](/C=C/S(C)(=O)=O)NC(=O)c1cnc(C(C)(C)C)nc1Oc1ccccc1` [Example 71, (S,E)-2-(tert-butyl)-N-(5-(dimethylamino)-1-(methylsulfonyl)-5-oxopent-1-en-3-yl)-4-phenoxypyrimidine-5-carboxamide] returned an IC50 in test [1] (setting [2]) of 0.27 µM. For the same molecule, the GI50 in the test with SW480 cells (Homo sapiens, SW480, 120 h) was determined as 41.4 µM; with HCT 116 cells (Homo sapiens, HCT-116, 120 h), 0.11 µM.

Regarding `CS(=O)(=O)C=CC1CN(C(=O)c2cnc(C3CC3)nc2Oc2ccccc2)C1` (racemic) [Example 22, (2-cyclopropyl-4-phenoxypyrimidin-5-yl)(3-(2-(methylsulfonyl)vinyl)azetidin-1-yl)methanone], the IC50 in test [1] is 3.5 µM. Moreover, the GI50 in the test with SW480 cells (Homo sapiens, SW480, 120 h) amounted to 6.1 µM; in the test on HCT 116 cells (Homo sapiens, HCT-116, 120 h) it was 2.5 µM.

For `CN(C)c1ncc(C(=O)N[C@H](/C=C/S(C)(=O)=O)C2CC2)c(Oc2ccccc2)n1` [Example 177, (S,E)-N-(1-cyclopropyl-3-(methylsulfonyl)allyl)-2-(dimethylamino)-4-phenoxypyrimidine-5-carboxamide], in test [1] (setting [2]), the IC50 stood at 0.37 µM. The 50% growth inhibitory concentration (GI50) in the test on SW480 cells (Homo sapiens, SW480, 120 h) turned out to be 12 µM; in the test with HCT 116 cells (Homo sapiens, HCT-116, 120 h), 0.086 µM.

Consider `Cc1cc(C(=O)N[C@@H](C)/C=C/S(C)(=O)=O)c(Oc2ccccc2)nc1C1CCCC1` [Example 262, (S,E)-6-cyclopentyl-5-methyl-N-(4-(methylsulfonyl)but-3-en-2-yl)-2-phenoxynicotinamide], for which the IC50 in test [1] (setting [2]) was 6.5 µM. In addition, the concentration for 50% growth inhibition (GI50) in the test with SW480 cells (Homo sapiens, SW480, 120 h) was 3 µM; in the test on HCT 116 cells (Homo sapiens, HCT-116, 120 h), 1.7 µM.

On to `CC(F)(F)c1ncc(C(=O)N[C@H](/C=C/S(C)(=O)=O)C2CC2)c(O[C@@H]2C[C@@H]3C[C@@H]3C2)n1` [Example 158, 4-(((1R,3r,5S)-bicyclo[3.1.0]hexan-3-yl)oxy)-N—((S,E)-1-cyclopropyl-3-(methylsulfonyl)allyl)-2-(1,1-difluoroethyl)pyrimidine-5-carboxamide], for which the IC50 in test [1] (setting [2]) stood at 1.5 µM. Besides, the GI50 worked out at 40 µM in the test with SW480 cells (Homo sapiens, SW480, 120 h) and 0.36 µM in the test with HCT 116 cells (Homo sapiens, HCT-116, 120 h).

The molecule `CN(c1ncc(C(=O)N[C@H](/C=C/S(C)(=O)=O)C2CC2)c(Oc2ccccc2)n1)C1CC1` [Example 180, (S,E)-2-(cyclopropyl(methyl)amino)-N-(1-cyclopropyl-3-(methylsulfonyl)allyl)-4-phenoxypyrimidine-5-carboxamide] registered an IC50 in test [1] (setting [2]) of 0.439 µM. Further, the 50% growth inhibitory concentration (GI50) in the test with SW480 cells (Homo sapiens, SW480, 120 h) amounted to 3.4 µM; in the test on HCT 116 cells (Homo sapiens, HCT-116, 120 h) it was 0.0582 µM.

For the molecule `CC(C)(C)c1ncc(C(=O)NC/C=C/S(C)(=O)=O)c(O[C@H]2C[C@@H]3C[C@@H]3C2)n1` [Example 159, 4-(((1R,3s,5S)-bicyclo[3.1.0]hexan-3-yl)oxy)-2-(tert-butyl)-N—((E)-3-(methylsulfonyl)allyl)pyrimidine-5-carboxamide], in test [1] (read-out: WRN Helicase IC50, 30 min preincubation with ATP, 30 min reaction), the IC50 is 6.9 µM. In addition, the concentration for 50% growth inhibition (GI50) in the test on SW480 cells (SW480 (MSS), 5-day incubation) came to 12 µM; with HCT 116 cells (setting [3]) it was 2.5 µM.

Turning to `CSc1ncc(C(=O)NC/C=C/S(C)(=O)=O)c(Oc2ccccc2)n1` [Example 241, (E)-N-(3-(methylsulfonyl)allyl)-2-(methylthio)-4-phenoxypyrimidine-5-carboxamide], the IC50 in test [1] (setting [2]) was 12 µM. The GI50 with SW480 cells (Homo sapiens, SW480, 120 h) is over 10 µM; in the test on HCT 116 cells (Homo sapiens, HCT-116, 120 h), 8.4 µM.

For `CS(=O)(=O)/C=C/[C@@H](NC(=O)c1cnc(OC2CC2)nc1Oc1ccccc1)C1CC1` [Example 245, (S,E)-2-cyclopropoxy-N-(1-cyclopropyl-3-(methylsulfonyl)allyl)-4-phenoxypyrimidine-5-carboxamide], the IC50 in test [1] (setting [2]) was 1.1 µM. The GI50 in the test with SW480 cells (Homo sapiens, SW480, 120 h) worked out at 36 µM; with HCT 116 cells (Homo sapiens, HCT-116, 120 h), 0.14 µM.

Regarding `CCN(CC)c1ncc(C(=O)N[C@H](/C=C/S(C)(=O)=O)C2CC2)c(Oc2ccccc2)n1` [Example 179, (S,E)-N-(1-cyclopropyl-3-(methylsulfonyl)allyl)-2-(diethylamino)-4-phenoxypyrimidine-5-carboxamide], the IC50 in test [1] (setting [2]) was found to be 1.04 µM. In addition, the 50% growth inhibitory concentration (GI50) in the test on SW480 cells (Homo sapiens, SW480, 120 h) came out at 7 µM; in the test with HCT 116 cells (Homo sapiens, HCT-116, 120 h), 0.198 µM.

Take `CS(=O)(=O)/C=C/[C@@H](NC(=O)c1ccc(C(F)(F)C2CC2)nc1Oc1ccccc1)C1CC1` [Example 234, (S,E)-N-(1-cyclopropyl-3-(methylsulfonyl)allyl)-6-(cyclopropyldifluoromethyl)-2-phenoxynicotinamide]: in test [1] (setting [2]), the IC50 stood at 0.056 µM. In addition, the GI50 in the test with SW480 cells (Homo sapiens, SW480, 120 h) stood at 6.1 µM; in the test on HCT 116 cells (Homo sapiens, HCT-116, 120 h), 0.011 µM.

Take `C=C(C#N)[C@H](C)NC(=O)c1cnc(C(F)(F)C2CC2)nc1Oc1ccccc1` [275/276, (S)—N-(3-cyanobut-3-en-2-yl)-2-(cyclopropyldifluoromethyl)-4-phenoxypyrimidine-5-carboxamide/(R)—N-(3-cyanobut-3-en-2-yl)-2-(cyclopropyldifluoromethyl)-4-phenoxypyrimidine-5-carboxamide]: the GI50 in the test with SW480 cells (SW480 (MSS), 5-day incubation) was 10 µM and 9.4 µM.

Regarding `CS(=O)(=O)/C=C/CNC(=O)c1cnc(C2CCCC2)nc1Oc1ccccc1` [Example 1, (E)-2-cyclopentyl-N-(3-(methylsulfonyl)allyl)-4-phenoxypyrimidine-5-carboxamide], the 50% growth inhibitory concentration (GI50) in the test on HCT 116 cells (Homo sapiens, HCT-116, 120 h) turned out to be 2.1 µM.

In test [1] (setting [2]), `[2H]c1c([2H])c([2H])c(Oc2nc(C(F)(F)C3CC3)ncc2C(=O)N[C@H](/C=C/S(C)(=O)=O)C2CC2)c([2H])c1[2H]` [Example 229, (S,E)-N-(1-cyclopropyl-3-(methylsulfonyl)allyl)-2-(cyclopropyldifluoromethyl)-4-(phenoxy-d5)pyrimidine-5-carboxamide] registered an IC50 of 0.058 µM. Moreover, the GI50 worked out at 13 µM with SW480 cells (Homo sapiens, SW480, 120 h) and 0.013 µM in the test with HCT 116 cells (Homo sapiens, HCT-116, 120 h).

Consider `CS(=O)(=O)/C=C/CNC(=O)c1cnc(C2CCCC2)nc1Oc1ccc(Cl)cc1` [Example 120, (E)-4-(4-chlorophenoxy)-2-cyclopentyl-N-(3-(methylsulfonyl)allyl)pyrimidine-5-carboxamide], for which, in test [1] (setting [2]), the IC50 was 4.9 µM. Moreover, the GI50 came out at 4.8 µM in the test on SW480 cells (Homo sapiens, SW480, 120 h) and 4.3 µM in the test with HCT 116 cells (Homo sapiens, HCT-116, 120 h).

For `C[C@@H](/C=C/S(C)(=O)=O)NC(=O)c1cnc(C(C)(F)F)nc1Oc1ccccc1` [Example 86, (S,E)-2-(1,1-difluoroethyl)-N-(4-(methylsulfonyl)but-3-en-2-yl)-4-phenoxypyrimidine-5-carboxamide], the concentration for 50% growth inhibition (GI50) in the test on SW480 cells (Homo sapiens, SW480, 120 h) worked out at 41.7 µM; in the test on HCT 116 cells (Homo sapiens, HCT-116, 120 h), 0.224 µM.

As to `C=C(C#N)[C@@H](NC(=O)c1cnc(C(C)(F)F)nc1Oc1ccccc1)C1CC1` [278/279, (S)—N-(2-cyano-1-cyclopropylallyl)-2-(1,1-difluoroethyl)-4-phenoxypyrimidine-5-carboxamide/(R)—N-(2-cyano-1-cyclopropylallyl)-2-(1,1-difluoroethyl)-4-phenoxypyrimidine-5-carboxamide], the GI50 in the test with SW480 cells (SW480 (MSS), 5-day incubation) was found to be 11 µM; in the test on HCT 116 cells (setting [3]), 0.35 µM.

For the molecule `C[C@@H](/C=C/S(C)(=O)=O)NC(=O)c1cnc(C2CC2)c2c1OC1(CCCC1)C2` [Example 259, (S,E)-4′-cyclopropyl-N-(4-(methylsulfonyl)but-3-en-2-yl)-3′H-spiro[cyclopentane-1,2′-furo[3,2-c]pyridine]-7′-carboxamide], the IC50 in test [1] was found to be 7 µM; at WRN C727, 0.12 µM.

As for `CS(=O)(=O)/C=C/[C@@H](NC(=O)c1cc2c(nc1Oc1ccccc1)C(F)(F)CC2)C1CC1` [Example 237, (S,E)-N-(1-cyclopropyl-3-(methylsulfonyl)allyl)-7,7-difluoro-2-phenoxy-6,7-dihydro-5H-cyclopenta[b]pyridine-3-carboxamide], the IC50 is 17 µM in test [1] (setting [2]) and 0.5 µM on WRN C727.

Regarding `C=C(C#N)[C@H](C)NC(=O)c1cnc(C(C)(F)F)nc1Oc1ccccc1` [Example 273/274, (S)—N-(3-cyanobut-3-en-2-yl)-2-(1,1-difluoroethyl)-4-phenoxypyrimidine-5-carboxamide/(R)—N-(3-cyanobut-3-en-2-yl)-2-(1,1-difluoroethyl)-4-phenoxypyrimidine-5-carboxamide], the GI50 was determined as 16 µM in the test on SW480 cells (SW480 (MSS), 5-day incubation) and 0.122 µM in the test on HCT 116 cells (setting [3]).

Take `CC(F)(F)c1ncc(C(=O)NC(C=CS(C)(=O)=O)C2CC(F)(F)C2)c(Oc2ccccc2)n1` (single isomer, unassigned) [192/193]: the GI50 with SW480 cells (Homo sapiens, SW480, 120 h) is 24 µM; in the test on HCT 116 cells (Homo sapiens, HCT-116, 120 h) it was 0.023 µM.

Turning to `C[C@@H](/C=C/S(C)(=O)=O)NC(=O)c1cnc(C(C)(C)C)nc1OC1CC(F)(F)C1` [Example 156, (S,E)-2-(tert-butyl)-4-(3,3-difluorocyclobutoxy)-N-(4-(methylsulfonyl)but-3-en-2-yl)pyrimidine-5-carboxamide], the results for the IC50 (in test [1] (setting [2]); at WRN C727) were 15 µM and 40 µM, respectively.

`C[C@@H](/C=C/S(C)(=O)=O)NC(=O)c1cnc(C2CCOC2)nc1Oc1ccccc1` (stereo partly drawn) [Example 79, N—((S,E)-4-(methylsulfonyl)but-3-en-2-yl)-4-phenoxy-2-(tetrahydrofuran-3-yl)pyrimidine-5-carboxamide]: the IC50 was 18 µM in test [1] (setting [2]) and over 100 µM at WRN C727.

Source of the values: patent publication US20250188040A1, “PHARMACEUTICAL COMPOSITIONS COMPRISING WRN HELICASE INHIBITORS” (Vividion Therapeutics, Inc., priority 2022, published 2025).
